One assay has as its system aPKC. Briefly: insulin-stimulated tissue aPKC activity in wild type mice after a single ICAPP injection. The assay is classed as in vivo, mouse. Particulars: 1.5 mg/kg ICAPP s.c., 2-30 hours, insulin 1 U/kg. Here is the method: aPKCι Assays: aPKC enzyme activity was measured as previously described (Standaert et al., J. Biol. Chem. 279:24929-24934, 2004; Sajan et al., J. Lipid Res. 50:1133-1145, 2009; Sajan et al., Diabetologia 52:1197-1207, 2009; Farese et al., J. Clin. Invest. 117:2289-2301, 2007). In brief, aPKCs were immunoprecipitated from cell lysates with a rabbit polyclonal antiserum (Santa Cruz Biotechnologies) that recognizes the C-termini of both PKC-ζ and PKC-λ/ι (whereas mouse (Bandyopadhyay et al., Endocrinol. 141:4120-4127, 2000) and human (present findings) muscle contains mainly PKC-λ and PKC-ι, respectively, and little PKC-ζ, mouse and human liver contains substantial amounts of both PKC-ζ and PKC-λ (Sajan et al., J. Lipid Res. 50:1133-1145, 2009; Matsumoto et al., J. Clin. Invest. 112:935-944, 2003; and present results). Immunoprecipitates were collected on Sepharose-AG beads (Santa Cruz Biotechnologies), and beads were suspended and incubated for 8 minutes at 30° C. in 100 buffer containing 50 mM Tris/HCl (pH, 7.5), 100 μM Na3VO4, 100 μM Na4P2O7, 1 mM NaF, 100 μM PMSF, 4 μg phosphatidylserine (Sigma-Aldrich), 50 μM [γ-^32P]ATP (NEN Life Science Products/Perkin-Elmer, Waltham, Mass.), 5 mM MgCl2, and, as substrate, 40 μM serine analogue of the PKC-ε pseudosubstrate (BioSource/Invitrogen, Carlsbad, Calif.). After incubation, ^32P-labeled substrate was trapped on P-81 filter paper and counted. This assay reflects the specific activity of a constant amount of aPKC (even in Het-MλKO mice) that is immunoprecipitated by supplier-prescribed amounts of antiserum (Farese et al., J. Clin. Invest. 117:2289-2301, 2007; Beeson et al., Diabetes 52:1926-1934, 2003).
Wild type mice were treated with 1.5 mg/kg ICAPP subcutaneously and after 2-30 hours, the mice were treated with 1 U/kg insulin 15 minutes before euthanasia. aPKC activity was determined as described in Example 1.

Another assay concerns Het-MλKO mice. Put plainly: clinical parameters in Het-MλKO mice (model of obesity/metabolic syndrome/T2DM). Particulars: ICAP-treated Mλ-Het KO mice (n = 12), 0.5 mg/kg body weight/day x 8 days s.c., mean ± SEM. The assay is classed as in vivo, mouse.
Assay [1] has as its system aPKC immunoprecipitated from tissues previously stimulated by insulin. Put plainly: fully-activated aPKC immunoprecipitated from insulin-stimulated tissues. In kind it is biochemical. Here is the method:
aPKCι Assays: aPKC enzyme activity was measured as previously described (Standaert et al., J. Biol. Chem. 279:24929-24934, 2004; Sajan et al., J. Lipid Res. 50:1133-1145, 2009; Sajan et al., Diabetologia 52:1197-1207, 2009; Farese et al., J. Clin. Invest. 117:2289-2301, 2007). […] After incubation, ^32P-labeled substrate was trapped on P-81 filter paper and counted. […]

For the molecule `NC(=O)c1ncn([C@@H]2C[C@H](COP(=O)(O)O)[C@@H](O)[C@H]2O)c1N` [ICAPP, 1H-imidazole-4-carboxamide, 5-amino-1-[2,3-dihydroxy-4-[(phosphonooxy)methyl]cyclopentyl]-[1R-(1α,2β,3β,4α)]], in the assay with aPKC, the “insulin-stimulated aPKC activity in adipose tissue” value is recorded as “not in either muscle or adipose tissues”, the “insulin-stimulated aPKC activity in liver” value was “diminished” and the “insulin-stimulated aPKC activity in muscle” value was “not in either muscle or adipose tissues”. In the case of `NC(=O)c1ncn([C@@H]2C[C@H](CO)[C@@H](O)[C@H]2O)c1N` [ICAP, 1H-imidazole-4-carboxamide 5-amino-1-[2,3-dihydroxy-4-[hydroxymethyl]cyclopentyl]-[1R-(1α,2β,3β,4α)]], the 10-min-post-insulin serum glucose in the assay on Het-MλKO mice is reported as 91 ± 8 mg/dL. Turning to `O=C([O-])CC([S][Au])C(=O)[O-]` (centres unmarked) [ATM, aurothiomalate, reference compound], the “inhibition of fully-activated aPKC immunoprecipitated from tissues previously stimulated by insulin” value in assay [1] is “did not inhibit”.

The record behind these values is patent US8580769B2, “Treatment of obesity, metabolic syndrome, and diabetes with protein kinase C inhibitors” (The United States of America as represented by the …, priority 2011, dated 2013).
